In patent US10987359B2, “Oxadiazepinone derivatives and methods of treating hepatitis B infections” (priority 2016, dated 2021):

System: HBV
Experiment: HBV replication inhibition assay (BDNA assay) in HepG2.2.15 cells
Type: cell-based
Conditions: Hepatitis B virus, HepG2.2.15, HBV replication assay (BDNA assay), HepG2.2.15 cells; read-out: DNA EC50
In short: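 HepG2.2.15 cells with stably integrated HBV were treated with serially diluted compounds at 0.5% DMSO for 6 days, with medium and compound refreshed at day 3. Encapsidated HBV DNA from DNase-treated supernatant was quantified by branched DNA assay. EC50 came from % inhibition versus DMSO, fitted non-linearly.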

SMILES | EC50 [nM]
C[C@@H]1Cc2nn3c(c2CN1C(=O)Nc1ccc(F)c(C#N)c1)C(=O)N(C)OC(C)(C)C3 [Compound 213, (R)—N-(3-cyano-4-fluorophenyl)-2,4,4,9-tetramethyl-1-oxo-1,4,5,8,9,11-hexahydropyrido[4′,3′:3,4]pyrazolo[5,1-d][1,2,5]oxadiazepine-10(2H)-carboxamide] | 1 to 100
C[C@@H]1Cc2nn3c(c2CN1C(=O)Nc1ccc(F)c(C(F)(F)F)c1)C(=O)N(C)OC(C)(C)C3 [Compound 214, (5R)—N-[4-Fluoro-3-(trifluoromethyl)phenyl]-5,11,11,13-tetramethyl-14-oxo-12-oxa-4,8,9,13-tetrazatricyclo[7.5.0.0^2.7]tetradeca-1,7-diene-4-carboxamide] | 1 to 100
CN1NCCn2nc3c(c2C1=O)CN(C(=O)Nc1ccc(F)c(Cl)c1)CC3 [Compound 216, N-(3-Chloro-4-fluoro-phenyl)-2-methyl-1-oxo-3,4,5,8,9,11-hexahydropyrido[2,3]pyrazolo[2,4-c][1,2,5]triazepine-10-carboxamide] | 100 to 500
CN1CCn2nc3c(c2C(=O)N1C)CN(C(=O)Nc1ccc(F)c(Cl)c1)CC3 [Compound 217, N-(3-Chloro-4-fluorophenyl)-2,3-dimethyl-1-oxo-1,2,3,4,5,8,9,11-octahydro-10H-pyrido[4′,3′:3,4]pyrazolo[5,1-d][1,2,5]triazepine-10-carboxamide] | 1 to 100
C=CCN1CCn2nc3c(c2C(=O)N1C)CN(C(=O)Nc1ccc(F)c(C#N)c1)[C@H](C)C3 [Compound 218, (R)-3-allyl-N-(3-cyano-4-fluorophenyl)-2,9-dimethyl-1-oxo-1,2,3,4,5,8,9,11-octahydro-10H-pyrido[4′,3′:3,4]pyrazolo[5,1-d][1,2,5]triazepine-10-carboxamide] | 1 to 100
CCCN1CCn2nc3c(c2C(=O)N1C)CN(C(=O)Nc1ccc(F)c(C#N)c1)[C@H](C)C3 [Compound 219, (R)—N-(3-cyano-4-fluorophenyl)-2,9-dimethyl-1-oxo-3-propyl-1,2,3,4,5,8,9,11-octahydro-10H-pyrido[4′,3′:3,4]pyrazolo[5,1-d][1,2,5]triazepine-10-carboxamide] | 1 to 100
C[C@@H]1Cc2nn3c(c2CN1C(=O)Nc1ccc(F)c(C#N)c1)C(=O)N(C)N(CCO)CC3 [Compound 220, (R)—N-(3-Cyano-4-fluorophenyl)-3-(2-hydroxyethyl)-2,9-dimethyl-1-oxo-1,2,3,4,5,8,9,11-octahydro-10H-pyrido[4′,3′:3,4]pyrazolo[5,1-d][1,2,5]triazepine-10-carboxamide] | 100 to 500
C[C@@H]1Cc2nn3c(c2CN1C(=O)Nc1ccc(F)c(C#N)c1)C(=O)N(C)N(CC(F)F)CC3 [Compound 221, (R)—N-(3-Cyano-4-fluorophenyl)-3-(2,2-difluoroethyl)-2,9-dimethyl-1-oxo-1,2,3,4,5,8,9,11-octahydro-10H-pyrido[4′,3′:3,4]pyrazolo[5,1-d][1,2,5]triazepine-10-carboxamide] | 1 to 100
C[C@@H]1Cc2nn3c(c2CN1C(=O)Nc1ccc(F)c(C#N)c1)C(=O)N(C)N(CCCO)CC3 [Compound 222, (R)—N-(3-Cyano-4-fluorophenyl)-3-(3-hydroxypropyl)-2,9-dimethyl-1-oxo-1,2,3,4,5,8,9,11-octahydro-10H-pyrido[4′,3′:3,4]pyrazolo[5,1-d][1,2,5]triazepine-10-carboxamide] | 100 to 500
CC(O)CN1CCn2nc3c(c2C(=O)N1C)CN(C(=O)Nc1ccc(F)c(C#N)c1)[C@H](C)C3 (stereo partly drawn) [Compound 223, (9R)—N-(3-Cyano-4-fluorophenyl)-3-(2-hydroxypropyl)-2,9-dimethyl-1-oxo-1,2,3,4,5,8,9,11-octahydro-10H-pyrido[4′,3′:3,4]pyrazolo[5,1-d][1,2,5]triazepine-10-carboxamide] | 100 to 500
C[C@@H]1Cc2nn3c(c2CN1C(=O)Nc1ccc(F)c(C#N)c1)C(=O)N(C)N(C)CC3 [Compound 224, (R)-N-(3-cyano-4-fluorophenyl)-2,3,9-trimethyl-1-oxo-1,2,3,4,5,8,9,11-octahydro-10H-pyrido[4′,3′:3,4]pyrazolo[5,1-d][1,2,5]triazepine-10-carboxamide] | 1 to 100
C[C@@H]1Cc2nn3c(c2CN1C(=O)Nc1ccc(F)c(C(F)(F)F)c1)C(=O)N(C)N(C)CC3 [Compound 225, (R)-N-(4-fluoro-3-(trifluoromethyl)phenyl)-2,3,9-trimethyl-1-oxo-1,2,3,4,5,8,9,11-octahydro-10H-pyrido[4′,3′:3,4]pyrazolo[5,1-d][1,2,5]triazepine-10-carboxamide] | 1 to 100
CN1NC(O)(C(F)(F)F)Cn2nc3c(c2C1=O)CN(C(=O)Nc1ccc(F)c(Cl)c1)CC3 (centres unmarked) [Compound 226, N-(3-chloro-4-fluorophenyl)-4-hydroxy-2-methyl-1-oxo-4-(trifluoromethyl)-1,2,3,4,5,8,9,11-octahydro-10H-pyrido[4′,3′:3,4]pyrazolo[5,1-d][1,2,5]triazepine-10-carboxamide] | > 1000
CN1N=C(CO)Cn2nc3c(c2C1=O)CN(C(=O)Nc1ccc(F)c(Cl)c1)CC3 [Compound 227, N-(3-chloro-4-fluorophenyl)-4-(hydroxymethyl)-2-methyl-1-oxo-1,2,5,8,9,11-hexahydro-10H-pyrido[4′,3′:3,4]pyrazolo[5,1-d][1,2,5]triazepine-10-carboxamide] | 1 to 100
CN1N=C(CO)Cn2nc3c(c2C1=O)CN(C(=O)Nc1ccc(F)c(C#N)c1)CC3 [Compound 228, N-(3-cyano-4-fluorophenyl)-4-(hydroxymethyl)-2-methyl-1-oxo-1,2,5,8,9,11-hexahydro-10H-pyrido[4′,3′:3,4]pyrazolo[5,1-d][1,2,5]triazepine-10-carboxamide] | 1 to 100
CCC(O)C1=NN(C)C(=O)c2c3c(nn2C1)CCN(C(=O)Nc1ccc(F)c(Cl)c1)C3 (centres unmarked) [Compound 229, N-(3-chloro-4-fluorophenyl)-4-(1-hydroxypropyl)-2-methyl-1-oxo-1,2,5,8,9,11-hexahydro-10H-pyrido[4′,3′:3,4]pyrazolo[5,1-d][1,2,5]triazepine-10-carboxamide] | 100 to 500
CC(O)C1=NN(C)C(=O)c2c3c(nn2C1)CCN(C(=O)Nc1ccc(F)c(Cl)c1)C3 (centres unmarked) [Compound 230, N-(3-chloro-4-fluorophenyl)-4-(1-hydroxyethyl)-2-methyl-1-oxo-1,2,5,8,9,11-hexahydro-10H-pyrido[4′,3′:3,4]pyrazolo[5,1-d][1,2,5]triazepine-10-carboxamide] | 1 to 100
CN1N=C(C(O)C2CC2)Cn2nc3c(c2C1=O)CN(C(=O)Nc1ccc(F)c(Cl)c1)CC3 (centres unmarked) [Compound 231, N-(3-chloro-4-fluorophenyl)-4-(cyclopropyl(hydroxy)methyl)-2-methyl-1-oxo-1,2,5,8,9,11-hexahydro-10H-pyrido[4′,3′:3,4]pyrazolo[5,1-d][1,2,5]triazepine-10-carboxamide] | 100 to 500
CC1=NN(C)C(=O)c2c3c(nn2C1)CCN(C(=O)Nc1ccc(F)c(Cl)c1)C3 [Compound 232, N-(3-chloro-4-fluorophenyl)-2,4-dimethyl-1-oxo-1,2,5,8,9,11-hexahydro-10H-pyrido[4′,3′:3,4]pyrazolo[5,1-d][1,2,5]triazepine-10-carboxamide] | 1 to 100
C[C@@H]1Cc2nn3c(c2CN1C(=O)Nc1ccc(F)c(C#N)c1)C(=O)N(C)N=C(CO)C3 [Compound 233, (R)-N-(3-cyano-4-fluorophenyl)-4-(hydroxymethyl)-2,9-dimethyl-1-oxo-1,2,5,8,9,11-hexahydro-10H-pyrido[4′,3′:3,4]pyrazolo[5,1-d][1,2,5]triazepine-10-carboxamide] | 1 to 100
